These compounds were tested against human PDHK2 (hPDHK2) (Homo sapiens (Human), UniProt Q15119) (assay: Inhibitory action of PDHK activity in vitro (kinase reaction, residual PDH activity measured)). Conditions: PDHK inhibitory activity, class symbol of IC50.
Format: biochemical

Row | Structure (SMILES) | IC50 [nM]
1 | COCc1ccc2c(c1)C(O)(C(F)(F)F)c1ccccc1-2 (stereo not drawn) [compound 75] | > 1000
2 | CC(=O)c1ccc2c(c1)C(O)(C(F)(F)F)c1ccccc1-2 (stereo not drawn) [compound 76] | > 1000
3 | CC1CCCN1C(=O)c1ccc2c(c1)C(O)(C(F)(F)F)c1ccccc1-2 (stereo not drawn) [compound 77] | > 1000
4 | O=C(c1ccc2c(c1)C(O)(C(F)(F)F)c1ccccc1-2)N1CC1 (stereo not drawn) [compound 78] | > 1000
5 | O=C(c1ccc2c(c1)C(O)(C(F)(F)F)c1ccccc1-2)N1CC(O)C1 (stereo not drawn) [compound 79] | 100 to 1000
6 | CN(C)c1ccc2c(c1)C(O)(C(F)(F)F)c1ccccc1-2 (stereo not drawn) [compound 80] | > 1000
7 | CCC(=O)c1cccc2c1-c1ccccc1C2(O)C(F)(F)F (stereo not drawn) [compound 81] | > 1000
8 | COCc1cccc2c1-c1ccccc1C2(O)C(F)(F)F (stereo not drawn) [compound 82] | > 1000
9 | O=C(c1cccc2c1-c1ccccc1C2(O)C(F)(F)F)C1CC1 (stereo not drawn) [compound 83] | > 1000
10 | CN(C)c1cccc2c1-c1ccccc1C2(O)C(F)(F)F (stereo not drawn) [compound 84] | > 1000
11 | CNc1cccc2c1-c1ccccc1C2(O)C(F)(F)F (stereo not drawn) [compound 85] | > 1000
12 | COC1CN(C(=O)c2ccc3c(c2)C(O)(C(F)(F)F)c2ccccc2-3)C1 (stereo not drawn) [compound 86] | 100 to 1000
13 | O=C(c1ccc2c(c1)C(O)(C(F)(F)F)c1ccccc1-2)N1CC(CO)C1 (stereo not drawn) [compound 87] | 100 to 1000
14 | CC1CN(C(=O)c2ccc3c(c2)C(O)(C(F)(F)F)c2ccccc2-3)C1 (stereo not drawn) [compound 88] | > 1000
15 | CCOc1ccc2c(c1)C(O)(C(F)(F)F)c1ccccc1-2 (stereo not drawn) [compound 89] | > 1000
16 | CC1CCN1C(=O)c1ccc2c(c1)C(O)(C(F)(F)F)c1ccccc1-2 (stereo not drawn) [compound 90] | 100 to 1000
17 | Cc1cc(C(=O)N2CCC2)cc2c1-c1ccccc1C2(O)C(F)(F)F (stereo not drawn) [compound 91] | < 100
18 | OC1(C(F)(F)F)c2ccccc2-c2c(-c3cnco3)cccc21 (stereo not drawn) [compound 92] | 100 to 1000

Row | Structure (SMILES) | IC50 [nM]
19 | CC(C)C(=O)c1cccc2c1-c1ccccc1C2(O)C(F)(F)F (stereo not drawn) [compound 93] | > 1000
20 | O=C(c1cc(Cl)c2c(c1)C(O)(C(F)(F)F)c1ccccc1-2)N1CCC1 (stereo not drawn) [compound 94] | < 100
21 | CNc1ccc2c(c1)C(O)(C(F)(F)F)c1ccccc1-2 (stereo not drawn) [compound 95] | > 1000
22 | CC(=O)N(C)c1ccc2c(c1)C(O)(C(F)(F)F)c1ccccc1-2 (stereo not drawn) [compound 96] | > 1000
23 | OC1(C(F)(F)F)c2ccccc2-c2ccc(-c3ccccc3)cc21 (stereo not drawn) [compound 97] | 100 to 1000
24 | O=C(c1ccccc1)c1ccc2c(c1)C(O)(C(F)(F)F)c1ccccc1-2 (stereo not drawn) [compound 98] | > 1000
25 | O=C(c1ccc2c(c1)C(O)(C(F)(F)F)c1ccccc1-2)c1cccs1 (stereo not drawn) [compound 99] | 100 to 1000
26 | CCC(=O)Nc1ccc2c(c1)-c1ccccc1C2(O)C(F)(F)F (stereo not drawn) [compound 100] | > 1000
27 | CC(C)C(=O)Nc1ccc2c(c1)-c1ccccc1C2(O)C(F)(F)F (stereo not drawn) [compound 101] | > 1000
28 | OC1(C(F)(F)F)c2ccccc2-c2ccc(-c3cccnc3)cc21 (stereo not drawn) [compound 102] | 100 to 1000
29 | OC1(C(F)(F)F)c2ccccc2-c2ccc(-c3ccncc3)cc21 (stereo not drawn) [compound 103] | 100 to 1000
30 | CCOC1CN(C(=O)c2ccc3c(c2)C(O)(C(F)(F)F)c2ccccc2-3)C1 (stereo not drawn) [compound 104] | 100 to 1000
31 | CCCOC1CN(C(=O)c2ccc3c(c2)C(O)(C(F)(F)F)c2ccccc2-3)C1 (stereo not drawn) [compound 105] | 100 to 1000
32 | COCCOC1CN(C(=O)c2ccc3c(c2)C(O)(C(F)(F)F)c2ccccc2-3)C1 (stereo not drawn) [compound 106] | 100 to 1000
33 | O=C(O)COC1CN(C(=O)c2ccc3c(c2)C(O)(C(F)(F)F)c2ccccc2-3)C1 (stereo not drawn) [compound 107] | > 1000
34 | O=C(c1ccc2c(c1)C(O)(C(F)(F)F)c1ccccc1-2)N1CC(OCCO)C1 (stereo not drawn) [compound 108] | 100 to 1000
35 | O=C(c1ccc2c(c1)C(O)(C(F)(F)F)c1ccccc1-2)C1CCCC1 (stereo not drawn) [compound 109] | > 1000
36 | CC(C)Oc1ccc2c(c1)C(O)(C(F)(F)F)c1ccccc1-2 (stereo not drawn) [compound 110] | > 1000

Same assay, conditions: read-out: PDHK inhibitory activity IC50

Row | Structure (SMILES) | IC50 [nM]
37 | COCc1ccc2c(c1)C(O)(C(F)(F)F)c1ccccc1-2 (stereo not drawn) [compound 75] | 6780
38 | CC(=O)c1ccc2c(c1)C(O)(C(F)(F)F)c1ccccc1-2 (stereo not drawn) [compound 76] | 1750
39 | CC1CCCN1C(=O)c1ccc2c(c1)C(O)(C(F)(F)F)c1ccccc1-2 (stereo not drawn) [compound 77] | 2500
40 | O=C(c1ccc2c(c1)C(O)(C(F)(F)F)c1ccccc1-2)N1CC1 (stereo not drawn) [compound 78] | 1360
41 | O=C(c1ccc2c(c1)C(O)(C(F)(F)F)c1ccccc1-2)N1CC(O)C1 (stereo not drawn) [compound 79] | 696
42 | CN(C)c1ccc2c(c1)C(O)(C(F)(F)F)c1ccccc1-2 (stereo not drawn) [compound 80] | 8240
43 | CCC(=O)c1cccc2c1-c1ccccc1C2(O)C(F)(F)F (stereo not drawn) [compound 81] | 2760
44 | COCc1cccc2c1-c1ccccc1C2(O)C(F)(F)F (stereo not drawn) [compound 82] | 67300
45 | O=C(c1cccc2c1-c1ccccc1C2(O)C(F)(F)F)C1CC1 (stereo not drawn) [compound 83] | 1140
46 | CN(C)c1cccc2c1-c1ccccc1C2(O)C(F)(F)F (stereo not drawn) [compound 84] | 42100
47 | CNc1cccc2c1-c1ccccc1C2(O)C(F)(F)F (stereo not drawn) [compound 85] | 23100
48 | COC1CN(C(=O)c2ccc3c(c2)C(O)(C(F)(F)F)c2ccccc2-3)C1 (stereo not drawn) [compound 86] | 378
49 | O=C(c1ccc2c(c1)C(O)(C(F)(F)F)c1ccccc1-2)N1CC(CO)C1 (stereo not drawn) [compound 87] | 669
50 | CC1CN(C(=O)c2ccc3c(c2)C(O)(C(F)(F)F)c2ccccc2-3)C1 (stereo not drawn) [compound 88] | 2530
51 | CCOc1ccc2c(c1)C(O)(C(F)(F)F)c1ccccc1-2 (stereo not drawn) [compound 89] | 2150
52 | CC1CCN1C(=O)c1ccc2c(c1)C(O)(C(F)(F)F)c1ccccc1-2 (stereo not drawn) [compound 90] | 474
53 | Cc1cc(C(=O)N2CCC2)cc2c1-c1ccccc1C2(O)C(F)(F)F (stereo not drawn) [compound 91] | 72
54 | OC1(C(F)(F)F)c2ccccc2-c2c(-c3cnco3)cccc21 (stereo not drawn) [compound 92] | 405

Row | Structure (SMILES) | IC50 [nM]
55 | CC(C)C(=O)c1cccc2c1-c1ccccc1C2(O)C(F)(F)F (stereo not drawn) [compound 93] | 29500
56 | O=C(c1cc(Cl)c2c(c1)C(O)(C(F)(F)F)c1ccccc1-2)N1CCC1 (stereo not drawn) [compound 94] | 49
57 | CNc1ccc2c(c1)C(O)(C(F)(F)F)c1ccccc1-2 (stereo not drawn) [compound 95] | 7830
58 | CC(=O)N(C)c1ccc2c(c1)C(O)(C(F)(F)F)c1ccccc1-2 (stereo not drawn) [compound 96] | 6570
59 | OC1(C(F)(F)F)c2ccccc2-c2ccc(-c3ccccc3)cc21 (stereo not drawn) [compound 97] | 849
60 | O=C(c1ccccc1)c1ccc2c(c1)C(O)(C(F)(F)F)c1ccccc1-2 (stereo not drawn) [compound 98] | 2420
61 | O=C(c1ccc2c(c1)C(O)(C(F)(F)F)c1ccccc1-2)c1cccs1 (stereo not drawn) [compound 99] | 718
62 | CCC(=O)Nc1ccc2c(c1)-c1ccccc1C2(O)C(F)(F)F (stereo not drawn) [compound 100] | 6150
63 | CC(C)C(=O)Nc1ccc2c(c1)-c1ccccc1C2(O)C(F)(F)F (stereo not drawn) [compound 101] | 10300
64 | OC1(C(F)(F)F)c2ccccc2-c2ccc(-c3cccnc3)cc21 (stereo not drawn) [compound 102] | 323
65 | OC1(C(F)(F)F)c2ccccc2-c2ccc(-c3ccncc3)cc21 (stereo not drawn) [compound 103] | 151
66 | CCOC1CN(C(=O)c2ccc3c(c2)C(O)(C(F)(F)F)c2ccccc2-3)C1 (stereo not drawn) [compound 104] | 279
67 | CCCOC1CN(C(=O)c2ccc3c(c2)C(O)(C(F)(F)F)c2ccccc2-3)C1 (stereo not drawn) [compound 105] | 259
68 | COCCOC1CN(C(=O)c2ccc3c(c2)C(O)(C(F)(F)F)c2ccccc2-3)C1 (stereo not drawn) [compound 106] | 461
69 | O=C(O)COC1CN(C(=O)c2ccc3c(c2)C(O)(C(F)(F)F)c2ccccc2-3)C1 (stereo not drawn) [compound 107] | 2610
70 | O=C(c1ccc2c(c1)C(O)(C(F)(F)F)c1ccccc1-2)N1CC(OCCO)C1 (stereo not drawn) [compound 108] | 462
71 | O=C(c1ccc2c(c1)C(O)(C(F)(F)F)c1ccccc1-2)C1CCCC1 (stereo not drawn) [compound 109] | 1320
72 | CC(C)Oc1ccc2c(c1)C(O)(C(F)(F)F)c1ccccc1-2 (stereo not drawn) [compound 110] | 2490

From US8871934B2, “Fluorene compound and pharmaceutical use thereof” (Japan Tobacco Inc., priority 2008, dated 2014)
